Literature values, collected in PMC5278571, “Optimal doses of caspofungin during continuous venovenous hemodiafiltration in critically ill patients” (Critical Care, 2017).
In brackets after ≈: the same amount, converted by molar mass.

What was measured:
[1] = tested on: Candida and Aspergillus spp., including Candida parapsilosis; conditions: published MIC90s; cited from earlier work
Method: (§1) Taking into account a MIC of 0.1 mg/L [4], and using the target pharmacokinetics/pharmacodynamics (PK/PD) described for micafungin, we would have reac ...

[2] = tested on: Candida; conditions: MIC taken for the PK/PD target calculation; cited from earlier work
Method: as §1

SMILES: CC[C@H](C)C[C@H](C)CCCCCCCCC(=O)N[C@H]1C[C@@H](O)[C@@H](NCCN)NC(=O)[C@@H]2[C@@H](O)CCN2C(=O)[C@H]([C@H](O)CCN)NC(=O)[C@H]([C@H](O)[C@@H](O)c2ccc(O)cc2)NC(=O)[C@@H]2C[C@@H](O)CN2C(=O)[C@H]([C@@H](C)O)NC1=O [caspofungin]
- MIC90 [1]: 2 µg/mL (≈ 1.83 µM)
- MIC [2]: 0.1 µg/mL (≈ 0.0915 µM)
